Measured values from patent US5100892A, “Dihydropyridine vasodilator agents” (Glaxo Inc., priority 1990, dated 1992).

Test system: Spontaneously Hypertensive Rats
Assay: Spontaneously Hypertensive Rat (SHR) Test, hemodynamics in anesthetized rats
Type: in vivo, Spontaneously Hypertensive Rat (Sprague Dawley)
Conditions: for HR (Heart Rate: change from basal) / LVPT (time for Left Ventricular Pressure to decay from peak to 50%, % of basal) / MBP (Mean Blood Pressure: change from basal) / RT64 (change in time from maximal relaxation, % of basal) / dP/dT40 (change in rate of systolic pressure increase of left ventricle measured at 40 mm Hg from basal): anesthetized SHR
Experimental: Male Retired Breeder Spontaneously Hypertensive Rats (SHR) (Sprague Dawley, 250-350 g) are anesthetized by i.p. injection of Sodium Thiopental 50 mg/kg. A catheter is inserted into the duodenum for maintenance of anesthesia throughout the experiment. A tube is inserted through a lateral incision in the trachea. The left carotid artery is exposed and a Millar SPR-249 (2-F) pressure probe is inserted and passed into the left ventricle of the heart. Left ventricular pressure (LVP), the first differential of the LVP (+dP/dT,-dP/dT), the left ventricular end diastolic pressure (LVEDP) and the differential of the increase in LVP measured at a constant pressure of 40 mm Hg (dP/dT40) are measured via this probe. In addition to these parameters, two indices of myocardial diastolic relaxation are measured namely the RT64 (time in msec from the peak derivative of maximal relaxation to 64% of that value) and the Left Ventricular Pressure Time Constant (LVPT), the half-time for decay of the LVP from peak pressure to 50% of that pressure. […] Results also are shown graphically on a Gould RS3800 Recorder. A saline filled cannula is passed into the femoral vein for infusion of drugs and one is placed into the femoral artery for measurement and recording or arterial blood pressure (Statham P23Db pressure transducer). From this signal the diastolic, systolic and mean blood pressure are derived as well as the heart rate. After surgery, the preparation is left to stabilize for 45 minutes after which compounds, dissolved in polyethylene glycol, are slowly infused with a Sage Instruments Infusion pump into the femoral vein. […] After completion of the last infusion, hemodynamic parameters are observed over 30 min and then a standard dose of 3.0 mg/kg milrinone is infused (over 5 min) to test preparation responsiveness. In the SHR, the following results were obtained for several known cardiovascular agents and for the compound of Examples 10,11,15 and 16.

| Structure (SMILES) | HR (Heart Rate: change from basal) (10 mg/kg i.v.) [%] | LVPT (time for Left Ventricular Pressure to decay from peak to 50%, % of basal) (10 mg/kg i.v.) [%] | MBP (Mean Blood Pressure: change from basal) (10 mg/kg i.v.) [%] | RT64 (change in time from maximal relaxation, % of basal) (10 mg/kg i.v.) [%] | dP/dT40 (change in rate of systolic pressure increase of left ventricle measured at 40 mm Hg from basal) (10 mg/kg i.v.) [%] | effect on blood pressure (in words) (10 mg/kg i.v., SHR) | effect on dP/dT40 (in words) (10 mg/kg i.v., SHR) | effect on heart rate (in words) (10 mg/kg i.v., SHR) | effect on myocardial relaxation time constants (in words) (10 mg/kg i.v., SHR) | further results |
| --- | --- | --- | --- | --- | --- | --- | --- | --- | --- | --- |
| COC(=O)C1=C(C)NC(C)=C(C(=O)OCCNC(=O)COc2ccc(-c3cc(C#N)c(=O)[nH]c3C)cc2)C1c1cccc(Cl)c1Cl (racemic) [Example 11, (±)-2,6-dimethyl-3-carbomethoxy-4-(2,3-dichlorophenvl)-5-{4-[1,2-dihydro-2-oxo-3-cyano-6-methyl-5(1H)-pyridyl]phenoxymethylenecarboxamindoethyloxycarbonyl}-1,4-dihydropyridine] | 0 | -31 | -45.8 | -34.5 | -9 | – | – | – | – | HR (Heart Rate: change from basal) (0.3 mg/kg i.v.): 2.8%; LVPT (time for Left Ventricular Pressure to decay from peak to 50%, % of basal) (0.3 mg/kg i.v.): -14.4%; MBP (Mean Blood Pressure: change from basal) (0.3 mg/kg i.v.): -12.5%; RT64 (change in time from maximal relaxation, % of basal) (0.3 mg/kg i.v.): -15.7%; dP/dT40 (change in rate of systolic pressure increase of left ventricle measured at 40 mm Hg from basal) (0.3 mg/kg i.v.): 4.5%; HR (Heart Rate: change from basal) (1.0 mg/kg i.v.): 1.7%; LVPT (time for Left Ventricular Pressure to decay from peak to 50%, % of basal) (1.0 mg/kg i.v.): -22.4%; MBP (Mean Blood Pressure: change from basal) (1.0 mg/kg i.v.): -16.3%; RT64 (change in time from maximal relaxation, % of basal) (1.0 mg/kg i.v.): -22.8%; dP/dT40 (change in rate of systolic pressure increase of left ventricle measured at 40 mm Hg from basal) (1.0 mg/kg i.v.): 6.9%; HR (Heart Rate: change from basal) (3.0 mg/kg i.v.): -0.5%; LVPT (time for Left Ventricular Pressure to decay from peak to 50%, % of basal) (3.0 mg/kg i.v.): -34%; MBP (Mean Blood Pressure: change from basal) (3.0 mg/kg i.v.): -36.7%; RT64 (change in time from maximal relaxation, % of basal) (3.0 mg/kg i.v.): -26%; dP/dT40 (change in rate of systolic pressure increase of left ventricle measured at 40 mm Hg from basal) (3.0 mg/kg i.v.): 3.5%; hemodynamic profile compared with Example 10 (in words) (i.v., SHR, compared with Example 10): A similar profile was observed |
| COC(=O)C1=C(C)NC(C)=C(C(=O)OCCNC(=O)COc2ccc(-c3cc(C#N)c(=O)[nH]c3C)cc2)C1c1cccc([N+](=O)[O-])c1 (single isomer, unassigned; (+)) [Example 15, (+)-2,6-dimethyl-3-carbomethoxy-4-(3-nitrophenyl)-5-{4-[1,2-dihydro-2-oxo-3-cyano-b 6-methyl-5(1H)-pyridyl]phenoxymethylenecarboxamidoethyloxycarbonyl}-1,4-dihydropyridine] | -1.9 | -4.2 | -39.8 | 1.6 | 11.9 | hypotension | slight increase in dP/dT40 | no change in heart rate | little effect | – |
| COC(=O)C1=C(C)NC(C)=C(C(=O)OCCNC(=O)COc2ccc(-c3cc(C#N)c(=O)[nH]c3C)cc2)C1c1cccc([N+](=O)[O-])c1 (single isomer, unassigned; (-)) [Example 16, (-)-2,6-dimethyl-3-carbomethoxy-4-(3-nitrophenyl)-5-{4-[1,2-dihydro-2-oxo-3-cyano-6-methyl-5(1H)-pyridyl]phenoxymethylenecarboxamidoethyloxycarbonyl}-1,4-dihydropyridine] | -1.5 | -18 | -34.9 | -17.6 | 5 | hypotension | slight increase in dP/dT40 | no change in heart rate | marked reduction in myocardial relaxation time constants | – |
